{"source": "patent US8440655B2", "about": "“Combination therapy for the treatment of diabetes” (Theracos, Inc., priority 2010, dated 2013)", "origin": "cited, not measured here", "key": {"[1]": {"system": "cardiac receptors", "details": "(+) form compared to (−) form"}, "[2]": {"system": "muscarinic receptor", "details": "result in words"}, "[3]": {"system": "cortical receptors", "details": "(+) form compared to (−) isomer"}, "[4]": {"details": "at 90 degrees"}}, "data": [{"smiles": "Cc1scc2c1N(C(=O)CN1CCN(C)CC1)c1ccccc1NC2=O", "note": "[(+) form of telenzepine]", "values": [{"measurement": "factor by which the (+) form is more potent than the (−) form", "setting": "[1]", "result": 50}, {"measurement": "antimuscarinic activity", "setting": "[2]", "result": "potent antimuscarinic activity"}, {"measurement": "factor by which the (+) form is more effective than the (−) isomer", "setting": "[3]", "result": 400}]}, {"smiles": "Cc1scc2c1N(C(=O)CN1CCN(C)CC1)c1ccccc1NC2=O", "note": "[(−) form]", "values": [{"measurement": "antimuscarinic activity", "setting": "[2]", "result": "considerably less active"}]}, {"smiles": "Cc1scc2c1N(C(=O)CN1CCN(C)CC1)c1ccccc1NC2=O", "note": "[Telenzepine, 4,9-Dihydro-3-methyl-4-[(4-methyl-1-piperazinyl)acetyl]-10H-thieno[3,4-b][1,5]benzodiazepin-10-one]", "values": [{"measurement": "half time of interconversion of the two forms", "setting": "[4]", "result": "approximately 200 hours"}]}]}
